Patent US4368329A, “Process of preparing thiopyrylium sensitizing dyes” (Minnesota Mining and Manufacturing Company, priority 1981, dated 1983)

test: Absorption maximum (λmax) and log ε of the dye in solution; format: physicochemical; settings: CHCl3

| SMILES | log ε max. | λ max. |
| --- | --- | --- |
| Nc1ccc(-c2cc(-c3ccccc3)cc(-c3ccccc3)[s+]2)cc1 [Example 2] | 4.34 | 592 |
| CCN(Cc1ccccc1)c1ccc(-c2cc(-c3ccccc3)cc(-c3ccccc3)[s+]2)cc1 [Example 10] | 5.05 | 620 |
| Cc1cc(N(C)C)ccc1-c1cc(-c2ccccc2)cc(-c2ccccc2)[s+]1 [Example 16] | – | 616 |
| CN(C)c1ccc(-c2cc(-c3ccccc3)cc(-c3ccccc3)[s+]2)cc1 [Example 5] | 4.77 | 624 |
| CN(C)c1ccc(-c2cc(-c3ccccc3)cc(-c3ccccc3)[s+]2)cc1 [Example 6] | 4.86 | 622 |
| CCN(Cc1ccccc1)c1ccc(-c2cc(-c3ccccc3)cc(-c3ccccc3)[s+]2)cc1 [Example 9] | 5.18 | 615 |
| CCN(Cc1ccccc1)c1ccc(-c2cc(-c3ccccc3)cc(-c3ccccc3)[s+]2)cc1 [Example 8] | 4.53 | 620 |
| Cc1cc(-c2cc(-c3ccccc3)cc(-c3ccccc3)[s+]2)ccc1N [Example 12] | 4.32 | 600 |
| CCN(CC)c1ccc(-c2cc(-c3ccccc3)cc(-c3ccccc3)[s+]2)cc1 [Example 7] | 4.50 | 638 |
| Cc1cc(N)ccc1-c1cc(-c2ccccc2)cc(-c2ccccc2)[s+]1 [Example 14] | 4.30 | 564 |
| Cc1cc(-c2cc(-c3ccccc3)cc(-c3ccccc3)[s+]2)cc(C)c1N [Example 17] | 4.32 | 600 |
| c1ccc(CN(Cc2ccccc2)c2ccc(-c3cc(-c4ccccc4)cc(-c4ccccc4)[s+]3)cc2)cc1 [Example 11] | 4.50 | 602 |
| CCc1cc(-c2cc(-c3ccccc3)cc(-c3ccccc3)[s+]2)cc(CC)c1N [Example 18] | 4.32 | 602 |
| CNc1ccc(-c2cc(-c3ccccc3)cc(-c3ccccc3)[s+]2)cc1 [Example 4] | 4.55 | 633 |

Results, then the compound that gave them:

| log ε max. | λ max. | SMILES |
| --- | --- | --- |
| – | 675 nm | c1ccc(-c2cc(-c3ccccc3)[s+]c(-c3cc4c5c(c3)CCCN5CCC4)c2)cc1 [Example 31, 2,4-diphenyl-6(julolidin-6-yl) thiopyrylium trifluoromethane sulfonate] |
| 4.36 | 602 | COc1cc(-c2cc(-c3ccccc3)cc(-c3ccccc3)[s+]2)c(OC)cc1N [Example 25] |
| 4.31 | 638 | OCCN(CCO)c1ccc(-c2cc(-c3ccccc3)cc(-c3ccccc3)[s+]2)cc1 [Example 26] |
| 4.00 | 564 | Nc1ccc(-c2cc(-c3ccccc3)cc(-c3ccccc3)[s+]2)c(Cl)c1 [Example 27] |
| 4.32 | 612 | COc1cc(-c2cc(-c3ccccc3)cc(-c3ccccc3)[s+]2)ccc1N [Example 21] |
| – | 654 | Nc1ccc(-c2cc(-c3ccccc3)cc(-c3ccccc3)[s+]2)cc1N [Example 29] |
| 4.27 | 586 | COc1cc(N)ccc1-c1cc(-c2ccccc2)cc(-c2ccccc2)[s+]1 [Example 23] |
| 4.39 | 650 | c1ccc(Nc2ccc(-c3cc(-c4ccccc4)cc(-c4ccccc4)[s+]3)cc2)cc1 [Example 20] |
| 4.31 | 634 | c1ccc(-c2cc(-c3ccccc3)[s+]c(-c3ccc(NC4CCCCC4)cc3)c2)cc1 [Example 19] |

same assay, conditions: EtOH

| SMILES | log ε max. | λ max. |
| --- | --- | --- |
| Nc1ccc(-c2cc(-c3ccccc3)cc(-c3ccccc3)[s+]2)cc1 [Example 1, 2-(4-aminophenyl)-4,6-diphenylthiopyrylium perchlorate] | 4.21 | 584 |
| Cc1cc(N)ccc1-c1cc(-c2ccccc2)cc(-c2ccccc2)[s+]1 [Example 15] | 4.16 | 556 |
| Cc1cc(-c2cc(-c3ccccc3)cc(-c3ccccc3)[s+]2)ccc1N [Example 13] | 4.32 | 596 |
| CNc1ccc(-c2cc(-c3ccccc3)cc(-c3ccccc3)[s+]2)cc1 [Example 3] | 4.38 | 596 |

The next lines start with the values.

| log ε max. | λ max. | SMILES |
| --- | --- | --- |
| 4.16 | 566 | COc1cc(N)ccc1-c1cc(-c2ccccc2)cc(-c2ccccc2)[s+]1 [Example 24] |
| 4.06 | 588 | Nc1ccc(-c2cc(-c3ccccc3)cc(-c3ccccc3)[s+]2)c(Cl)c1 [Example 28] |
| 4.19 | 588 | COc1cc(-c2cc(-c3ccccc3)cc(-c3ccccc3)[s+]2)ccc1N [Example 22] |

same assay, conditions: Example 1, first band (584); solvent not given

| SMILES | logε |
| --- | --- |
| Nc1ccc(-c2cc(-c3ccccc3)cc(-c3ccccc3)[s+]2)cc1 [Example 1, 2-(4-aminophenyl)-4,6-diphenylthiopyrylium perchlorate] | 4.21 |

same assay, conditions: Example 1, first band; solvent not given

| SMILES | λ max. |
| --- | --- |
| Nc1ccc(-c2cc(-c3ccccc3)cc(-c3ccccc3)[s+]2)cc1 [Example 1, 2-(4-aminophenyl)-4,6-diphenylthiopyrylium perchlorate] | 584 |

same assay, conditions: Example 1, second band (367); solvent not given

| SMILES | logε |
| --- | --- |
| Nc1ccc(-c2cc(-c3ccccc3)cc(-c3ccccc3)[s+]2)cc1 [Example 1, 2-(4-aminophenyl)-4,6-diphenylthiopyrylium perchlorate] | 4.27 |

same assay, conditions: Example 1, second band; solvent not given

| SMILES | λ max. |
| --- | --- |
| Nc1ccc(-c2cc(-c3ccccc3)cc(-c3ccccc3)[s+]2)cc1 [Example 1, 2-(4-aminophenyl)-4,6-diphenylthiopyrylium perchlorate] | 367 |
